Measurements published in US20140228418A1, “COMBINATION THERAPY OF HSP90 INHIBITORY COMPOUNDS WITH MEK INHIBITORS” (Synta Pharmaceuticals Corp., priority 2011, published 2014).
pIC50: −log10 of the molar value.

Experiments:
Format in all cases: cell-based, Human
[1] = test system: H1666 NSCLC (BRAFG466V mutant); experiment: Cell viability (Cell Titer-Glo) in H1666 NSCLC cells, single agents and combination; conditions: FIG. 5
Method: (§1) Human H1666 NSCLC (BRAFG466V mutant) and A375 melanoma cells (BRAFV600E mutant) were purchased from the American Type Culture Collection (Manassas, Va.) and grown in RPMI or DMEM, respectively, in the presence of fetal bovine serum (10%), 2 mM L-glutamine and antibiotics (100 IU/ml penicillin and 100 μg/ml streptomycin) purchased from Sigma Aldrich. Cells were maintained at 37° C., 5% CO2 atmosphere.
(§2) Cell viability was measured using the Cell Titer-Glo assay (Promega). In brief, cells were plated in 96-well plates in triplicate at optimal seeding density (determined empirically for each cell line) and incubated at 37° C., 5% CO2 atmosphere for 24 hr prior to the addition of drug or vehicle (0.3% DMSO) to the culture medium. At the end of the assay, Cell Titer-Glow was added to the wells per manufactures recommendation, shaken for two minutes and incubated for 10 minutes at room temperature. Luminescence (0.1 sec) was measured with a Victor II microplate reader (Perkin Elmer) and the resulting data were used to calculate cell viability, normalized to vehicle control.
The combination of ganetespib and AZD6244 was performed in the NSCLC cell line H1666. Similar to A375 cells, the combination of both compounds yielded greater anticancer activity than monotherapy. […]

ERK = experiment: Western blotting of MAPK pathway analytes in A375 cells treated for 24 hr; conditions: A375 melanoma cells with constitutively activated MAPK, FIG. 1
Method: as §1
Cells, treated with compound for 24 hr, were lysed in RIPA buffer (CST, Danvers, Mass., USA) on ice and clarified by centrifugation. Equal amounts of proteins were resolved by SDS-PAGE and immunoblotted with indicated antibodies. The antigen-antibody complex was visualized and quantitated using an Odyssey system (LI-COR, Lincoln, Nebr., USA).
The mitogen-activated protein kinase (MAPK) signal transduction cascade is dysregulated in a majority of human tumors.

[2] = test system: A375 melanoma cells (BRAFV600E mutant); experiment: Cell viability (Cell Titer-Glo) in A375 melanoma cells, single agents and matrix combination; conditions: for cells killed / concentration that killed 100% of the cells: 72 hr; for cells killed: FIG. 3; for concentration that killed 100% of the cells: FIG. 2; for pIC50: Homo sapiens, A-375, 72 hr, FIG. 2, read-out: concentration that killed 50% of the cells
Method: as §1, §2
Matrix style combinations between AZD6244 and Ganetespib were performed in A375 melanoma cells. Cells were exposed to AZD6244, ganetespib or the combination of the two concurrently for 72 hr and viability was assessed.
Combination Index (CI) was then determined using the median effect analysis software CalcuSyn 2.0 (CalcuSyn, Inc.). A Combination Index greater than one, equal to one or less than one indicates antagonism, additivity and synergism, respectively.

Row | Structure (SMILES) | cells killed ([1]; AZD6244 118 nM alone) | disruption of activation of the MEK substrate ERK / abrogation of ERK activity (western blot) (ERK) | cells killed ([2]; AZD6244 24 nM alone) [%] | concentration that killed 100% of the cells [2] [nM] | pIC50 [2] | cells killed ([1]; ganetespib 68 nM alone) | cells killed ([2]; ganetespib 30 nM alone) [%]
1 | Cn1cnc2c(F)c(Nc3ccc(Br)cc3Cl)c(C(=O)NOCCO)cc21 [AZD6244, 6-(4-bromo-2-chloro-phenylamino)-7-fluoro-3-methyl-3H-benzoimidazole-5-carboxylic acid (2-hydroxy-ethoxy)-amide] | approximately 50% | highly effective | 10 | 228 | 7.19 | – | –
2 | CC(C)c1cc(-c2nnc(O)n2-c2ccc3c(ccn3C)c2)c(O)cc1O [ganetespib, 3-(2,4-dihydroxy-5-isopropyl-phenyl)-4-(1-methyl-indol-5-yl)-5-hydroxy-[1,2,4] triazole] | – | highly effective | – | 35 | 7.82 | approximately 50% | 20
